# Data taken from ChEMBL document CHEMBL5154869, “Discovery of 4-((E)-3,5-dimethoxy-2-((E)-2-nitrovinyl)styryl)aniline derivatives as potent and orally active NLRP3 inflammasome inhibitors for colitis” (Eur J Med Chem, 2022).
# The source made the active and inactive calls. No cut-off for these calls is given here.
# Columns and labels:
# Mus musculus [1] = assay: Anti-colitis activity against DSS-induced colitis C57BL/6 mouse model assessed as reduction in IL-1 beta level in colon at 10 to 20 mg/kg, po administered once a day and measured on day 8 by ELISA; format: functional, organism-based; settings: dose 10-20 mg/kg, time 8.0 day
# Mus musculus [2] = assay: Anti-colitis activity against DSS-induced colitis C57BL/6 mouse model assessed as reduction in body weight loss at 10 to 20 mg/kg, po administered once a day; format: functional, organism-based; settings: dose 10-20 mg/kg
# [3] = target: NACHT, LRR and PYD domains-containing protein 3 (Mus musculus) (UniProt Q8R4B8); assay: Inhibition of NLRP3 inflammasome activation in LPS-stimulated mouse J774.A1 cells assessed as reduction in pyroptosis at 10 uM pretreated for 4 hrs with LPS and for 30 mins with compound prior to ATP addition and measured after 30 mins by PI/Hoechst33342 staining based analysis; format: cell-based; settings: time 60.0 min
# [4] = target: NACHT, LRR and PYD domains-containing protein 3 (Mus musculus) (UniProt Q8R4B8); assay: Inhibition of NLRP3 inflammasome activation in LPS/MSU-treated C57BL/6 mouse bone marrow-derived macrophages assessed as reduction in activated caspase 1(P20) level in cell lysates preincubated for 3 hrs with LPS and for 30 mins with compound prior to MSU addition and measured after 30 mins by Western blot analysis; format: subcellular; settings: BMDM, time 60.0 min
# [5] = target: NACHT, LRR and PYD domains-containing protein 3 (Mus musculus) (UniProt Q8R4B8); assay: Inhibition of NLRP3 inflammasome activation in LPS/nigericin-treated C57BL/6 mouse bone marrow-derived macrophages assessed as reduction in activated caspase 1(P20) level in cell lysates at 0.5 to 2 uM preincubated for 3 hrs with LPS and for 30 mins with compound prior to nigericin addition and measured after 30 mins by Western blot analysis; settings: BMDM, dose 0.5-2 µM, time 60.0 min, DDE = dose-dependent effect
# [6] = target: NACHT, LRR and PYD domains-containing protein 3 (Mus musculus) (UniProt Q8R4B8); assay: Inhibition of NLRP3 inflammasome activation in LPS/MSU-treated C57BL/6 mouse bone marrow-derived macrophages assessed as reduction in cleaved IL-1 beta level in culture supernatants preincubated for 3 hrs with LPS and for 30 mins with compound prior to MSU addition and measured after 30 mins by Western blot analysis; format: cell-based; settings: BMDM, time 60.0 min
# [7] = target: NACHT, LRR and PYD domains-containing protein 3 (Mus musculus) (UniProt Q8R4B8); assay: Inhibition of NLRP3 inflammasome activation in LPS/nigericin-treated C57BL/6 mouse bone marrow-derived macrophages assessed as reduction in NEK7-NLRP3 protein-protein interaction at 2 to 4 uM preincubated for 3 hrs with LPS and for 30 mins with compound prior to nigericin addition and measured after 30 mins by immunoprecipitation method; format: cell-based; settings: BMDM, dose 2-4 µM, time 60.0 min
# Mus musculus [8] = assay: Anti-colitis activity against DSS-induced colitis C57BL/6 mouse model assessed as reduction in IL-6 level in colon at 10 to 20 mg/kg, po administered once a day and measured on day 8 by ELISA; format: functional, organism-based; settings: dose 10-20 mg/kg, time 8.0 day
# [9] = target: NACHT, LRR and PYD domains-containing protein 3 (Mus musculus) (UniProt Q8R4B8); assay: Inhibition of NLRP3 inflammasome activation in LPS/ATP-treated C57BL/6 mouse bone marrow-derived macrophages assessed as reduction in activated caspase 1(P20) level in culture supernatants preincubated for 3 hrs with LPS and for 30 mins with compound prior to ATP addition and measured after 30 mins by Western blot analysis; format: cell-based; settings: BMDM, time 60.0 min
# [10] = Inhibition of LPS/nigericin-induced reactive oxygen species production in C57BL/6 mouse bone marrow-derived macrophages assessed as ROS level at 4 uM by DCFH-DA staining based flow cytometry (reference value: 33.51%); format: functional, BMDM; parameters: scale not given: the % may be the effect or the level left
# [11] = target: NACHT, LRR and PYD domains-containing protein 3 (Mus musculus) (UniProt Q8R4B8); assay: Inhibition of NLRP3 inflammasome activation in LPS-stimulated mouse J774.A1 cells assessed as reduction in pyroptosis pretreated for 4 hrs with LPS and for 30 mins with compound prior to ATP addition and measured after 30 mins by PI/Hoechst33342 staining based analysis; format: cell-based; settings: dose 2.5-10 µM, time 60.0 min, DDE = dose-dependent effect
# Mus musculus [12] = assay: Anti-colitis activity against DSS-induced colitis C57BL/6 mouse model assessed as reduction in pathological index score of colon at 10 to 20 mg/kg, po administered once a day and measured on day 8 by H and E staining based analysis; format: functional, organism-based; settings: dose 10-20 mg/kg, time 8.0 day
# [13] = Metabolic stability in human hepatocytes assessed as intrinsic clearance by LC-MS/MS analysis; format: ADME, cell-based, Hepatocyte; settings: read-out: CLH
# [14] = target: NACHT, LRR and PYD domains-containing protein 3 (Mus musculus) (UniProt Q8R4B8); assay: Inhibition of NLRP3 inflammasome activation in LPS/ATP-treated C57BL/6 mouse bone marrow-derived macrophages assessed as reduction in cleaved IL-1 beta level in culture supernatants preincubated for 3 hrs with LPS and for 30 mins with compound prior to ATP addition and measured after 30 mins by Western blot analysis; format: cell-based; settings: BMDM, time 60.0 min
# [15] = target: NACHT, LRR and PYD domains-containing protein 3 (Mus musculus) (UniProt Q8R4B8); assay: Inhibition of NLRP3 inflammasome activation in LPS/ATP-treated C57BL/6 mouse bone marrow-derived macrophages assessed as reduction in activated caspase 1(P20) level in cell lysates preincubated for 3 hrs with LPS and for 30 mins with compound prior to ATP addition and measured after 30 mins by Western blot analysis; format: subcellular; settings: BMDM, time 60.0 min
# [16] = target: NACHT, LRR and PYD domains-containing protein 3 (Mus musculus) (UniProt Q8R4B8); assay: Inhibition of NLRP3 inflammasome activation in LPS/MSU-treated C57BL/6 mouse bone marrow-derived macrophages assessed as reduction in IL-1beta secretion preincubated for 3 hrs with LPS and for 30 mins with compound prior to MSU addition and measured after 30 mins by ELISA; format: cell-based; settings: BMDM, time 60.0 min
# Mus musculus [17] = assay: Anti-colitis activity against DSS-induced colitis C57BL/6 mouse model assessed as reduction in disease activity index administered po once a day; format: functional, organism-based; settings: dose 10-20 mg/kg, DDE = dose-dependent effect
# [18] = Inhibition of LPS/nigericin-induced reactive oxygen species production in C57BL/6 mouse bone marrow-derived macrophages assessed as ROS level at 1 uM by DCFH-DA staining based flow cytometry (reference value: 33.51%); format: functional, BMDM; parameters: scale not given: the % may be the effect or the level left
# [19] = Metabolic stability in human liver microsomes assessed as intrinsic clearance by LC-MS/MS analysis; format: ADME, Microsome; settings: read-out: CLH
# Mus musculus [20] = assay: Anti-colitis activity against DSS-induced colitis C57BL/6 mouse model assessed as reduction in colon shortening at 10 to 20 mg/kg, po administered once a day; format: functional, organism-based; settings: dose 10-20 mg/kg
# [21] = Metabolic stability in human liver microsomes assessed as half life by LC-MS/MS analysis; format: ADME, Microsome
# Mus musculus [22] = assay: Anti-colitis activity against DSS-induced colitis C57BL/6 mouse model assessed as reduction in TNF-alpha level in colon at 10 to 20 mg/kg, po administered once a day and measured on day 8 by ELISA; format: functional, organism-based; settings: dose 10-20 mg/kg, time 8.0 day
# [23] = target: NACHT, LRR and PYD domains-containing protein 3 (Mus musculus) (UniProt Q8R4B8); assay: Binding affinity to NLRP3 in mouse J774.A1 cell lysates assessed as reduction in protein degradation at 50 uM incubated at 48 to 78 degC by CETSA; format: subcellular
# [24] = target: NACHT, LRR and PYD domains-containing protein 3 (Mus musculus) (UniProt Q8R4B8); assay: Inhibition of NLRP3 inflammasome activation in LPS/ATP-treated C57BL/6 mouse bone marrow-derived macrophages assessed as reduction in IL-1beta secretion preincubated for 3 hrs with LPS and for 30 mins with compound prior to ATP addition and measured after 30 mins by ELISA; format: cell-based; settings: BMDM, time 60.0 min
# Mus musculus [25] = assay: Anti-colitis activity against DSS-induced colitis C57BL/6 mouse model assessed as reduction in decrease of goblet cells in colon at 10 to 20 mg/kg, po administered once a day and measured on day 8 by H and E staining based analysis; format: functional, organism-based; settings: dose 10-20 mg/kg, time 8.0 day
# [26] = target: NACHT, LRR and PYD domains-containing protein 3 (Mus musculus) (UniProt Q8R4B8); assay: (§1) Inhibition of NLRP3 inflammasome activation in LPS/nigericin-treated C57BL/6 mouse bone marrow-derived macrophages assessed as reduction in IL-1beta secretion preincubated for 3 hrs with LPS and for 30 mins with compound prior to nigericin addition and measured after 30 mins by ELISA; format: cell-based; settings: BMDM, time 60.0 min, DDE = dose-dependent effect
# [27] = target: NACHT, LRR and PYD domains-containing protein 3 (Mus musculus, UniProt Q8R4B8); assay: as §1; format: cell-based, BMDM
# NACHT, LRR and PYD domains-containing protein 3, sequence (Q8R4B8 whole entry, the tested form may be a part): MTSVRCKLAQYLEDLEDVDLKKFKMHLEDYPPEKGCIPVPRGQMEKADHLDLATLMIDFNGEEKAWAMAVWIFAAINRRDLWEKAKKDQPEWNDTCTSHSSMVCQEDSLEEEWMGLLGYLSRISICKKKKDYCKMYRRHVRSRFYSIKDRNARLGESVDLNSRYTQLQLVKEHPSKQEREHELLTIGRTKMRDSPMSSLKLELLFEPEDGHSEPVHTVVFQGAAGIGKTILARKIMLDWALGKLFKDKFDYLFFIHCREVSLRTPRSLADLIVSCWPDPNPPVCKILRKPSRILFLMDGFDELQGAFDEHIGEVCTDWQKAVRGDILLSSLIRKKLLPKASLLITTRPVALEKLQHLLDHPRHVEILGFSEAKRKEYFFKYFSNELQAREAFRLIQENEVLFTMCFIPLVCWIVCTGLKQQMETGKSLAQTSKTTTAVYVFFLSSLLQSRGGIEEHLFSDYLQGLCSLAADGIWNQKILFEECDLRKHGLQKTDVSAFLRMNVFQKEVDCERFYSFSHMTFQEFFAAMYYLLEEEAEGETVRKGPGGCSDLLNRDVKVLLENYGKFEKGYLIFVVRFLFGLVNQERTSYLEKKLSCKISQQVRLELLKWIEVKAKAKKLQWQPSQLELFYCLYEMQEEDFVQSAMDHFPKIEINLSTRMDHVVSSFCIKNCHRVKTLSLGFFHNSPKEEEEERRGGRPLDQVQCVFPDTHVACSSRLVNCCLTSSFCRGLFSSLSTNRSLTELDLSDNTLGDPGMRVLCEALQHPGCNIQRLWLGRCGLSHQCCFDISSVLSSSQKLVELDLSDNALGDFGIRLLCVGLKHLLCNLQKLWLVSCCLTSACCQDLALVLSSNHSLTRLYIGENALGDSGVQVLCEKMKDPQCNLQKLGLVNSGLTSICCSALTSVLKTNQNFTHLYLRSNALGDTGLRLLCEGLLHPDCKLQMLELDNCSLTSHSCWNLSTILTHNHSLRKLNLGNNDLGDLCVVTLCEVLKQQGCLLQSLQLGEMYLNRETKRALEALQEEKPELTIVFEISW
# NACHT, LRR and PYD domains-containing protein 3 (Mus musculus), sequence (Q8R4B8 whole entry, the tested form may be a part): as above
structure (smiles),measurement,setting,value
COc1cc(/C=C/c2ccc(NC(=O)c3ccco3)cc2)c(/C=C/[N+](=O)[O-])c(OC)c1,Activity,Mus musculus [1],Active
same,Activity,Mus musculus [2],Active
same,inhibition,[3],70.8%
same,inhibition,[4],Active
same,inhibition,[5],Dde
same,inhibition,[6],Active
same,inhibition,[7],Active
same,Activity,Mus musculus [8],Active
same,inhibition,[9],Active
same,Activity,[10],29.01%
same,inhibition,[11],Dde
same,Activity,Mus musculus [12],Active
same,CLint scaled,[13],7.4 mL/min/kg
same,inhibition,[14],Active
same,inhibition,[15],Active
same,inhibition,[16],Active
same,Activity,Mus musculus [17],Dde
same,Activity,[18],30.5%
same,microsomal CLint,[19],10 µL/min/mg
same,Activity,Mus musculus [20],Active
same,half-life,[21],139 min
same,Activity,Mus musculus [22],Active
same,inhibition,[23],Active
same,inhibition,[24],Active
same,Activity,Mus musculus [25],Active
same,inhibition,[26],Dde
same,IC50,[27],1230 nM
